# Experimental data as given in US10434112B2, “Use of agonists of formyl peptide receptor 2 for treating dermatological diseases” (Allergan, Inc., priority 2013, dated 2019).
# Target: human FPR2 receptor (Homo sapiens (Human), UniProt P25090)
# Experiment: FLIPR Ca+2 response in HEK-Gα16 cells stably expressing the human FPR2 receptor
# Type: cell-based
# Parameters: FPR2 (% eff): unit not given here
# Details: Table 4
# Description: FLIPR: HEK-Gα16 cells stably expressing the human FPR2 receptor was utilized. Cells were plated into 384-well poly-D-lysine coated plates at a density of 18,000 cells per well one day prior to use. The growth media was DMEM medium supplemented with 10% fetal bovine serum (FBS), 1% antibiotic-antimycotic, 50 μg/ml hygromycin, and 400 μg/ml geneticin. On the day of the experiment, the cells were washed twice with Hank's Balanced Salt Solution supplemented with 20 mM HEPES (HBSS/hepes buffer). The cells were then dye loaded with 2 μM Fluo-4 diluted in the HBSS/Hepes buffer and incubated at 37° C. for 40 minutes. Extracellular dye was removed by washing the cell plates four times prior to placing the plates in the FLIPR (Fluorometric Imaging Plate Reader, Molecular Devices). Ligands were diluted in HBSS/Hepes buffer and prepared in 384-well microplates. Data for Ca^+2 responses were obtained in relative fluorescence units.
# human FPR2 receptor, sequence (P25090 whole entry): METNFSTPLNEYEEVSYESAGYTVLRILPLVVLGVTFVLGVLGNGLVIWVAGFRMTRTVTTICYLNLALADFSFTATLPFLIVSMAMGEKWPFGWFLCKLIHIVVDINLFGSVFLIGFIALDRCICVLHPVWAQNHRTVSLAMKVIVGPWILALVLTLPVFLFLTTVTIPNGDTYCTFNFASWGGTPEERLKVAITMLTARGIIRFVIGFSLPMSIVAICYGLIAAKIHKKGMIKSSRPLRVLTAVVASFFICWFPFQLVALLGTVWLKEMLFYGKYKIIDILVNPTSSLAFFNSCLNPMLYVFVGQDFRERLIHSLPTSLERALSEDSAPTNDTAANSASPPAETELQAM
row,Compound,EC50
1,"CC1(CCc2cccc(O)c2)NC(=O)N(NC(=O)Nc2ccc(Br)cc2)C1=O (stereo not drawn) [Compound 108, 1-(4-bromophenyl)-3-{4-[2-(3-hydroxyphenyl)ethyl]-4-methyl-2,5-dioxoimidazolidin-1-yl}urea]",2.1 nM

# Same assay, conditions: Table 4; value in brackets, given mostly as fraction
row,Compound,FPR2 (% eff)
1,"CC[C@H](C)[C@H](NC(=O)Nc1ccc(Br)cc1F)C(=O)O [Compound 5, (2S,3S)-2-{[(4-bromo-2-fluorophenyl)carbamoyl]amino}-3-methylpentanoic acid]",0.96
2,"CS(=O)(=O)c1ccc(NC(=O)Nc2ccc3c(c2)C(=O)N(CCc2c[nH]cn2)C(c2ccc(F)cn2)C3)cc1 (stereo not drawn) [Compound 25, 1-{3-(5-fluoropyridin-2-yl)-2-[2-(1H-imidazol-4-yl)ethyl]-1-oxo-1,2,3,4-tetrahydroisoquinolin-7-yl}-3-[4-(methylsulfonyl)phenyl]urea]",1.0
3,"CC(C)C[C@H](NC(=O)Nc1ccc(I)cc1)C(=O)O [Compound 121, (2S)-2-{[(4-iodophenyl)carbamoyl]amino}-4-methylpentanoic acid]",0.93
4,"CCC[C@H](NC(=O)[C@H](CC(C)C)NC(=O)Nc1ccc(Br)cc1)C(N)=O [Compound 102, (2S)-N-[(2S)-1-amino-1-oxopentan-2-yl]-2-{[(4-bromophenyl)carbamoyl]amino}-4-methylpentanamide]",0.99
5,"CC1(CCc2cccc(O)c2)NC(=O)N(NC(=O)Nc2ccc(Br)cc2)C1=O (stereo not drawn) [Compound 108, 1-(4-bromophenyl)-3-{4-[2-(3-hydroxyphenyl)ethyl]-4-methyl-2,5-dioxoimidazolidin-1-yl}urea]",100
6,"CC(C)C[C@H](NC(=O)Nc1ccc(Br)cc1)C(=O)NCC(C)(C)O [Compound 93, (2S)-2-{[(4-bromophenyl)carbamoyl]amino}-N-(2-hydroxy-2-methylpropyl)-4-methylpentanamide]",0.93
7,"O=C(O)C1C(C(=O)Nc2ccc(Br)cc2)C2C=CC1C21CC1 (stereo not drawn) [Compound 12, 3-[(4-bromophenyl)carbamoyl]spiro [bicyclo[2.2.1]heptane-7,1′-cyclopropane]-5-ene-2-carboxylic acid]",0.97
8,"CCC[C@H](NC(=O)[C@H](CC(C)C)NC(=O)Nc1ccc(Br)cc1)C(=O)O [Compound 101, (2S)-2-{[(2S)-2-{[(4-bromophenyl)carbamoyl]amino}-4-methylpentanoyl]amino} pentanoic acid]",0.95
9,"CCC1(CC)NC(=O)N(NC(=O)Nc2ccc(Br)cc2F)C1=O [Compound 50, 1-(4-bromo-2-fluorophenyl)-3-(4,4-diethyl-2,5-dioxoimidazolidin-1-yl)urea]",1.0
10,"CSc1ccc(NC(=O)Nc2ccc3c(c2)C(=O)N(CCCN)C(c2ccc(C#N)cc2)C3)cc1 (stereo not drawn) [Compound 16, 1-[2-(3-aminopropyl)-3-(4-cyanophenyl)-1-oxo-1,2,3,4-tetrahydroisoquinolin-7-yl]-3-[4-(methylsulfanyl)phenyl]urea]",0.70
11,"CC(C)C[C@H](NC(=O)Nc1ccc(Br)cc1)C(=O)NCc1nnn[nH]1 [Compound 104, (2S)-2-{[(4-bromophenyl)carbamoyl]amino}-4-methyl-N-(1H-tetrazol-5-ylmethyl)pentanamide]",0.81
12,"CC(C)C1(CC(=O)NCCO)NC(=O)N(NC(=O)Nc2ccc(Br)cc2)C1=O (stereo not drawn) [Compound 133, 2-[1-{[(4-bromophenyl)carbamoyl]amino}-2,5-dioxo-4-(propan-2-yl)imidazolidin-4-yl]-N-(2-hydroxyethyl)acetamide]",1.0
13,"CC(C)C[C@H](NC(=O)Nc1ccc(Br)cc1)C(=O)NC(CO)CO [Compound 94, (2S)-2-{[(4-bromophenyl)carbamoyl]amino}-N-(1,3-dihydroxypropan-2-yl)-4-methylpentanamide]",0.96
14,"CC(C)C[C@H](NC(=O)Nc1ccc(Br)cc1F)C(=O)N[C@@H](C)C(=O)O [Compound 87, (2S)-2-{[(2S)-2-{[(4-bromo-2-fluorophenyl)carbamoyl]amino}-4-methylpentanoyl]amino}propanoic acid]",0.95
